26 compounds from patent US20240368122A1, “JAK2 INHIBITORS AND METHODS OF USE THEREOF” (RELAY THERAPEUTICS, INC., priority 2021, published 2024) can be followed below.

In assay [1] the test system is TF1 JAK2 V617F STAT3 reporter. The assay can be described thus: Cellular TF1 STAT3 assay (luciferase reporter), JAK2 V617F. The following applies: TF1 JAK2 V617F, read-out: Cell PD-TF1 JAK2 V617F STAT3 (IC50). The class given is cell-based. The method, boiled down: (§1)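 TF1 erythroleukemia cells expressing V617F JAK2 with a STAT3 or STAT5 luciferase reporter were seeded at 10,000 cells/well onto compound (10-point, 1:3 dilutions; 10 mM top stock at 1000×) and incubated 18-20 h at 37 °C, 5% CO2. Luminescence was read after ONE-glo addition, 10 min at room temperature.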
On the technique in general: A reporter such as luciferase makes a cellular process visible.

In assay [2] the target is T1, JAK2 JH2 WT (V536-D812) [W659A, W777A, F794H solubilizing mutations] (Homo sapiens, UniProt O60674, F794H/W659A/W777A).
T1 construct: **JAK2 JH2 WT (V536-D812) [W659A, W777A, F794H solubilizing mutations]; C-thrombin-avi-His6; thrombin cleavage site (C); His6 (C); purchased Biortus
T1 sequence (O60674 536-812 W659A/W777A/F794H): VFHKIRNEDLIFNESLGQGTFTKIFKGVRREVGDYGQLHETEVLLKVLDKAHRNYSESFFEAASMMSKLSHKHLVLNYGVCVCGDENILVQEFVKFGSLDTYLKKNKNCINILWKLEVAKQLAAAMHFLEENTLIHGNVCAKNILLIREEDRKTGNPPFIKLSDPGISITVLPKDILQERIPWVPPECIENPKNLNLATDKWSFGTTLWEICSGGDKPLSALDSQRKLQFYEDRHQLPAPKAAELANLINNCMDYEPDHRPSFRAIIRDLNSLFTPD
The assay can be described thus: Surface Plasmon Resonance (SPR) binding assay, JAK2 JH2 domain. The following applies: SPR, JAK2 JH2 domain. The method, boiled down:
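Kinetics came from 1:1 fits of single-cycle runs at 20 °C: four 3-fold dilutions from 5 uM for JH1 or 500 nM for JH2, 60 s association, and 300 s or 1200 s dissociation respectively. Protein was freshly captured per compound in the presence of 10 uM stabilizer compound, with running buffer of pH 7.5 HEPES/NaCl/glycerol/DTT plus 2% DMSO.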

For assay [3], the target named is T2, JAK2 JH1 WT (T842-G1132) (Homo sapiens, UniProt O60674).
T2 construct: *JAK2 JH1 WT (T842-G1132) N-His60-avi-TEV; His6 (N); TEV cleavage site (N); purchased Biortus
T2 sequence (O60674 842-1132): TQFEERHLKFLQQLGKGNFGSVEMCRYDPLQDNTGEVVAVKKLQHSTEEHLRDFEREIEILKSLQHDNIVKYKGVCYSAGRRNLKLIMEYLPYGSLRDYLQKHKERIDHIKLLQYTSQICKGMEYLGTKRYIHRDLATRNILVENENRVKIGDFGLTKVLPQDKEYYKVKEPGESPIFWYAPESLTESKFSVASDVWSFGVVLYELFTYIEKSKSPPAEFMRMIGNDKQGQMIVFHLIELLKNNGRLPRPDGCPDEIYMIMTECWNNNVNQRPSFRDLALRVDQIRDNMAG
The assay can be described thus: Surface Plasmon Resonance (SPR) binding assay, JAK2 JH1 domain. The following applies: SPR, JAK2 JH1 domain. On the procedure: Selected compounds of the present disclosure were tested in a Surface Plasmon Resonance (SPR) Assay to measure their binding kinetics and affinity for proteins of interest.
Prepare buffer: 50 mM HEPES pH 7.5, 150 mM NaCl, 0.05% (v/v) Tween, and 10% (v/v) glycerol were combined and pH was adjusted to 7.5, then filtered. 5 mM DTT, was added, and buffer without DMSO was reserved for compound resuspension. 2% (v/v) DMSO was added for assay buffer, and separately 1% DMSO was used to make buffer for resuspending compounds.
Prepare compounds: Using a Bravo liquid handler, 99 μL of 1% (v/v) DMSO assay buffer was added to 1 μL compounds in DMSO.
Run 8K Method: Biotin CAPture (CAP) chip surface was regenerated prior to run by: Inserting CAP chip into Biacore 8K, prime machine with assay buffer with 2% (v/v) DMSO; Setting instrument temperature to 20° C.; Conditioning surface with NaOH/GdnHCl reagents from CAP chip kit (60 seconds, 10 μL/min); and Capturing oligo-Streptavidin (SA) reagent from CAP kit (600 seconds, 1 μL/min), expected capture ˜2500 RU. JAK2 JH1 or JH2 protein was immobilized by preparing a sample of 0.5 uM JH1 or 0.4 uM JH2 protein diluted in assay buffer without DMSO and supplemented with 10 uM of a selected compound of the invention as a stabilizer (370 seconds, 5 uL/min), expected capture ˜1000 RU. Remaining biotin sites on SA were blocked with 1 uM biotin (30 seconds, 20 uL/min), then equilibrated for 1800 seconds at 100 uL/min. Compounds being assayed were run in single cycle kinetics: 4 doses with a top concentration of 5 uM (JH1) or 500 nM (JH2), dilution factor of 3, at 20° C., for a contact time of 60 seconds, and a dissociation time of 300 seconds (JH1) or 1200 seconds (JH2), at a flow rate of 30 uL/min. The surface was completely regenerated after each compound is run, and JH1 or JH2 protein was immobilized fresh prior to each new compound. Data were fitted kinetically with 1:1 binding model using Biacore Insight Evaluation Software.

Assay [4] deals with TF1 JAK2 V617F STAT5 reporter. Description: Cellular TF1 STAT5 assay (luciferase reporter), JAK2 V617F. The format is cell-based. The following applies: TF1 JAK2 V617F, read-out: Cell PD TF1 V617F STAT5 (IC50). The essentials:
as §1

Each structure is given as a SMILES string.

`CNC(=O)c1nnc(NC(=O)C2CC2)cc1Nc1cccc(-c2ccc(C(=O)N(C)Cc3cnn(C)c3)nc2)c1OC` [Compound 17]: the IC50 in assay [1] and in assay [4] was 50 to 500 nM throughout. Besides, the Kd (usually the free concentration of one partner at which half of the binding sites on the other are occupied at equilibrium, for simple one-to-one binding) in assay [2] fell in the range of 0.01 to 10 nM; in assay [3], 5 to 100 µM.
In the case of `CNC(=O)c1nnc(NC(=O)C2CC2)cc1Nc1cccc(-c2ccc(C(=O)N(C)Cc3cccc(C#N)n3)nc2)c1OC` [Compound 135], the IC50 in assay [1] and in assay [4] was 50 to 500 nM throughout. Also, the Kd lay in the range of 0.01 to 10 nM in assay [2] and 5 to 100 µM in assay [3].
Regarding `CNC(=O)c1nnc(NC(=O)C2CC2)cc1Nc1cc(F)cc(-c2cnn(C3CN(Cc4ccn(C)n4)C3)c2)c1OC` [Compound 155], the IC50 in assay [1] and in assay [4] was 500 to 5000 nM each time. For the same compound, the Kd fell in the range of 0.01 to 10 nM in assay [2] and 5 to 100 µM in assay [3].
For the compound `CNC(=O)c1nnc(NC(=O)C2CC2)cc1Nc1cccc(-c2ccc(C(=O)N(Cc3cc(C#N)ccn3)OC)nc2)c1OC` [Compound 159], the IC50 in assay [1] and in assay [4] was 50 to 500 nM in each case. For the same compound, the Kd in assay [2] lay in the range of 0.01 to 10 nM; in assay [3], 5 to 100 µM.
Consider `CNC(=O)c1nnc(NC(=O)C2CC2)cc1Nc1cccc(-c2cnc(C(=O)N(C)Cc3cc(C#N)ccn3)c(F)c2)c1OC` [Compound 28], for which the IC50 in assay [1] and in assay [4] was 50 to 500 nM each time. For the same compound, the values for the Kd in assay [2] and in assay [3] were 0.01 to 10 nM and 5 to 100 µM, respectively.
With `CNC(=O)c1nnc(NC(=O)C2CC2)cc1Nc1cccc(-c2ccc(C(=O)N(C)Cc3ccn(C)n3)c(C#N)c2)c1OC` [Compound 119], the IC50 in assay [1] and in assay [4] was 500 to 5000 nM throughout. In addition, the Kd in assay [2] lay in the range of 0.01 to 10 nM; in assay [3], 5 to 100 µM.
With `[2H]C([2H])([2H])NC(=O)c1nnc(NC(=O)C2CC2)cc1Nc1cccc(-c2ccc(C(=O)N(C)Cc3cc(C#N)ccn3)nc2)c1OC` [Compound 61], the IC50 in assay [1] and in assay [4] was 50 to 500 nM throughout. In addition, the Kd in assay [2] is 0.01 to 10 nM; in assay [3], 5 to 100 µM.
As to `CNC(=O)c1nnc(NC(=O)C2CC2)cc1Nc1cccc(-c2cn(C3CN(Cc4ccccn4)C3)nn2)c1OC` [Compound 150], the IC50 in assay [1] and in assay [4] was 500 to 5000 nM each time. The Kd in assay [2] lay within 0.01 to 10 nM; in assay [3], 5 to 100 µM.
Turning to `CNC(=O)c1nnc(NC(=O)C2CC2)cc1Nc1cccc(-c2cnn(C3CN(Cc4cccc(C(F)F)n4)C3)c2)c1OC` [Compound 145], the half-inhibitory concentration (IC50) in assay [1] and in assay [4] was 50 to 500 nM throughout. Besides, the Kd in assay [2] fell in the range of 0.01 to 10 nM; in assay [3] it was 5 to 100 µM.
Turning to `CNC(=O)c1nnc(NC(=O)C2CC2)cc1Nc1cccc(-c2ccc(C(=O)N(C)Cc3nncs3)nc2)c1OC` [Compound 146], the IC50 (as a rule, the concentration that gives 50% inhibition) in assay [1] was in the range of 500 to 5000 nM; in assay [4], 5000 to 100000 nM. The results for the Kd in assay [2] and in assay [3] were 0.01 to 10 nM and 5 to 100 µM, respectively.
On the same counts, the results for `CNC(=O)c1nnc(NC(=O)C2CC2)cc1Nc1cccc(-c2cnn(C3CN(Cc4cccc(C#N)n4)C3)c2)c1OC` [Compound 147] are 50 to 500 nM, 50 to 500 nM, 0.01 to 10 nM and 0.5 to 5 µM.
The matching figures for `C#Cc1cccc(CN2CC(n3cc(-c4cccc(Nc5cc(NC(=O)C6CC6)nnc5C(=O)NC)c4OC)cn3)C2)n1` [Compound 152]: 50 to 500 nM, 50 to 500 nM, 0.01 to 10 nM and 0.5 to 5 µM.
The matching figures for `CNC(=O)c1nnc(NC(=O)C2CC2)cc1Nc1cccc(-c2cnn(C3CN(Cc4ccccn4)C3)c2)c1OC` [Compound 39]: 50 to 500 nM, 50 to 500 nM, 0.01 to 10 nM and 0.5 to 5 µM.
Regarding `CNC(=O)c1nnc(NC(=O)C2CC2)cc1Nc1cccc(-c2ccc(C(=O)N(C)Cc3cc(C#N)ccn3)cn2)c1OC` [Compound 55], the IC50 in assay [1] and in assay [4] was 500 to 5000 nM each time. Moreover, the figures for the Kd in assay [2] and in assay [3] were 0.01 to 10 nM and 5 to 100 µM, respectively.
On to `CNC(=O)c1nnc(NC(=O)C2CC2)cc1Nc1ccc(C)c(-c2ccc(C(=O)N(C)Cc3cc(C#N)ccn3)nc2)c1OC` [Compound 33], for which the IC50 in assay [1] and in assay [4] was 10 to 50 nM each time. In addition, the results for the Kd in assay [2] and in assay [3] were 0.01 to 10 nM and 5 to 100 µM, respectively.
Take `CNC(=O)c1nnc(NC(=O)C2CC2)cc1Nc1cccc(-c2ncc(NC(=O)Cc3cccn(C)c3=O)cn2)c1OC` [Compound 6]: the IC50 in assay [1] and in assay [4] was 5000 to 100000 nM throughout. The figures for the Kd in assay [2] and in assay [3] were 0.01 to 10 nM and 0.5 to 5 µM, respectively.
In the case of `CNC(=O)c1nnc(NC(=O)C2CC2)cc1Nc1cccc(-c2cnc(C(=O)N(C)Cc3cc(C#N)ccn3)cn2)c1OC` [Compound 37], the half-maximal inhibitory concentration (IC50) in assay [1] and in assay [4] was 50 to 500 nM each time. Moreover, the Kd fell in the range of 0.01 to 10 nM in assay [2] and 5 to 100 µM in assay [3].
In the case of `CNC(=O)c1nnc(NC(=O)C2CC2)cc1Nc1cccc(-c2ccc(C(=O)N(C)Cc3cc(C#N)ccn3)nn2)c1OC` [Compound 35], the IC50 in assay [1] lay in the range of 50 to 500 nM; in assay [4], 500 to 5000 nM. Further, the Kd in assay [2] was 0.01 to 10 nM; in assay [3], 5 to 100 µM.
On the same counts, the results for `CNC(=O)c1nnc(NC(=O)C2CC2)cc1Nc1cccc(-c2cnn(C3CN(Cc4cccc(F)n4)C3)c2)c1OC` [Compound 142] are 50 to 500 nM, 50 to 500 nM, 0.01 to 10 nM and 0.5 to 5 µM.
The matching figures for `CNC(=O)c1nnc(NC(=O)C2CC2)cc1Nc1cccc(-c2nnc(C3CN(Cc4ccccn4)C3)o2)c1OC` [Compound 156]: 5000 to 100000 nM, 5000 to 100000 nM, 10 to 50 nM and 5 to 100 µM.
The matching figures for `CNC(=O)c1nnc(NC(=O)C2CC2)cc1Nc1cccc(-c2cnc(C(=O)N(C)Cc3cc(C#N)ccn3)nc2)c1OC` [Compound 36]: 50 to 500 nM, 50 to 500 nM, 0.01 to 10 nM and 5 to 100 µM.
With `CNC(=O)c1nnc(NC(=O)C2CC2)cc1Nc1cccc(-c2ccc(C(=O)NCc3cccn(C)c3=O)nn2)c1OC` [Compound 8], the IC50 lay in the range of 500 to 5000 nM in assay [1] and 5000 to 100000 nM in assay [4]. Also, the values for the Kd in assay [2] and in assay [3] were 0.01 to 10 nM and 5 to 100 µM, respectively.
On the same counts, the results for `CNC(=O)c1nnc(NC(=O)C2CC2)cc1Nc1cccc(-c2ccc(C(=O)N(C)Cc3cc(C#N)ccn3)cc2)c1OC` [Compound 11] are 500 to 5000 nM, 500 to 5000 nM, 0.01 to 10 nM and 5 to 100 µM.
The matching figures for `CNC(=O)c1nnc(NC(=O)C2CC2)cc1Nc1cccc(-c2cnc(C(=O)N(C)Cc3cccnn3)c(F)c2)c1OC` [Compound 48]: 500 to 5000 nM, 500 to 5000 nM, 0.01 to 10 nM and 5 to 100 µM.
On the same counts, the results for `CNC(=O)c1nnc(NC(=O)C2CC2)cc1Nc1cccc(-c2ccc(C(=O)N(C)Cc3ccnn3C)nc2)c1OC` [Compound 40] are 500 to 5000 nM, 500 to 5000 nM, 0.01 to 10 nM and 5 to 100 µM.
As for `CNC(=O)c1nnc(NC(=O)C2CC2)cc1Nc1cccc(-c2cnn(C3CN(Cc4nc(C)cs4)C3)c2)c1OC` [Compound 141], the IC50 in assay [1] and in assay [4] was 500 to 5000 nM each time. Further, the Kd in assay [2] was 0.01 to 10 nM; in assay [3] it was 5 to 100 µM.
